From patent US20090170880A1, “Methods and Means for the Treatment of Cancer” (priority 2007, published 2009)
Like-named read-outs stand apart in the source and are kept apart here.

Legend:
[1] = system: recurrent grade 3 and grade 4 gliomas, GBM; conditions: cited from earlier work
[2] = Stability of temozolomide in culture medium; assay type: physicochemical
[3] = Plasma exposure of oral temozolomide in mice; assay type: in vivo; conditions: mouse, 100 mg/kg, read-out: AUC0-7 h, plasma
Procedure: We also established the drug exposure in wild-type (n=18) and Bcrp1/Mdr1ab knockout mice (n=19) receiving an oral dose of 100 mg/kg by gavage. Blood was sampled from the tail at 15, 30 min and 1, 4 and 7 h post drug administration to obtain a full curve from each animal.
Plasma and brain AUC0-7h values and standard errors were calculated by the linear trapezoidal rule using standard equations (14). The plasma half-life of temozolomide was calculated by linear regression analysis after log transformation of the concentration data using Microsoft Excel 2003. The brain-to-plasma ratio was calculated for each individual animal. The two-sided unpaired Student's t-test was used for statistical analysis of AUC values. Bonferroni's test for multiple comparisons was calculated using SPSS (v12.0.1; SPSS Inc, Chicago, Ill., USA) for brain and plasma levels and brain-to-plasma ratios determined at 2 h post temozolomide administration with the inhibitors and for analyzing the results of the in vivo efficacy study.

[4] = Transwell experiments, recovery of temozolomide in acceptor compartment; assay type: in vitro ADME; conditions: after 30 min, transport medium pH 7.4
Procedure: (§1) The parental LLC pig-kidney (PK1) cell line and sublines transduced with murine Mdr1a or human MDR1 (12) and the parental Madine Darby Canine Kidney (MDCK) and murine Bcrp1 or human BCRP transduced sublines (13) were seeded on Transwell microporous polycarbonate membrane filters (3.0 μm pore size, 24 mm diameter; Costar Corning, N.Y., USA) at a density of 1×10^6 cells per well in 2 ml of MEM medium (Invitrogen Corporation, Carlsbad, Calif.) containing 10% v/v fetal calf serum. Cells were incubated at 37° C. in 5% CO2 for three days with one medium replacement after the first day. Two hours before the start of the experiment the medium in both compartments was replaced with 2 ml of OptiMEM medium (InVitrogen Corp.). At the start of the experiment the medium in the apical or basolateral compartment was replaced with 2 ml of freshly prepared OptiMEM medium containing 40 μg/ml of temozolomide. […] Zosuquidar (LY335979, 5 μM) was always added to the medium when doing experiments with MDCK cell lines to inhibit endogenous canine P-gp. Samples of 50 μl were collected every 30 min, for up to 2 h after start of the experiment. Because temozolomide is instable in medium at 37° C., we replaced one ml of the donor compartment by a freshly prepared aliquot every 30 min. […]

[5] = target: T1, murine Bcrp1 (Mus musculus, UniProt Q7TMS5); experiment: Transwell transport of temozolomide, MDCKII-Bcrp1 cells, without or with inhibitors; assay type: in vitro ADME; conditions: 40 μg/ml, MDCK-Bcrp1 versus MDCK parent, zosuquidar 5 μM
T1 construct: expressed in transfected cells; host or cells: MDCKII (canine kidney) cells transduced with murine Bcrp1
T1 sequence (Q7TMS5 1-657): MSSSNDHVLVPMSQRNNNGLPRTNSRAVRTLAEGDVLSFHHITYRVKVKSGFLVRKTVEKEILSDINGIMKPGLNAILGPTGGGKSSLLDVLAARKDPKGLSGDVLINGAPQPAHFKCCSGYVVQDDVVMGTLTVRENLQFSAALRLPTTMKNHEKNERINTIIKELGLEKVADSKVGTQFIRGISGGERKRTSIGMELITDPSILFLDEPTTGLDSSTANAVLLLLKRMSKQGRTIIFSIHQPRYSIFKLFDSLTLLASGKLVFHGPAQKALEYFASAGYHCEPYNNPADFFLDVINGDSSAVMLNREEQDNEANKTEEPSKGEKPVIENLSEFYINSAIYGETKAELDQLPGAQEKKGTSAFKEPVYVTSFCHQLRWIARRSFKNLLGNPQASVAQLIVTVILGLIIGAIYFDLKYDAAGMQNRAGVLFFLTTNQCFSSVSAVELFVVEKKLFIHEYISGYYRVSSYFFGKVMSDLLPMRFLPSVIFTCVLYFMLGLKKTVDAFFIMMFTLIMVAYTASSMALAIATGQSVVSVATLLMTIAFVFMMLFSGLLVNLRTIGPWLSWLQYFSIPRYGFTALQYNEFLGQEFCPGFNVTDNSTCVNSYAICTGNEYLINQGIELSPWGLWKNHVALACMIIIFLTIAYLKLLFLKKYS
Procedure: The parental LLC pig-kidney (PK1) cell line and sublines transduced with murine Mdr1a or human MDR1 (12) and the parental Madine Darby Canine Kidney (MDCK) and murine Bcrp1 or human BCRP transduced sublines (13) were seeded on Transwell microporous polycarbonate membrane filters (3.0 μm pore size, 24 mm diameter; Costar Corning, N.Y., USA) at a density of 1×10^6 cells per well in 2 ml of MEM medium (Invitrogen Corporation, Carlsbad, Calif.) containing 10% v/v fetal calf serum. Cells were incubated at 37° C. in 5% CO2 for three days with one medium replacement after the first day. Two hours before the start of the experiment the medium in both compartments was replaced with 2 ml of OptiMEM medium (InVitrogen Corp.). At the start of the experiment the medium in the apical or basolateral compartment was replaced with 2 ml of freshly prepared OptiMEM medium containing 40 μg/ml of temozolomide. […] Zosuquidar (LY335979, 5 μM) was always added to the medium when doing experiments with MDCK cell lines to inhibit endogenous canine P-gp. Samples of 50 μl were collected every 30 min, for up to 2 h after start of the experiment. Because temozolomide is instable in medium at 37° C., we replaced one ml of the donor compartment by a freshly prepared aliquot every 30 min. [^3H]-inulin (approximately 7 kBq per well) was added to the same compartment as temozolomide to check the integrity of the cell layer. Wells showing a leakage of more than 1.5% per hour were excluded.
First, we took samples every 30 min for up to 2 h instead of every hour for up to 4 h. Secondly, to maintain adequate temozolomide levels at the donor side throughout the experiment we replaced 1 ml of the 2 ml of medium at the donor side of the transwell at each sampling time by 1 ml of a freshly prepared temozolomide solution in medium.

[6] = target: T2, human P-gp (MDR1) (Homo sapiens, UniProt P08183); experiment: Transwell transport of temozolomide, LLC-MDR1 cells; assay type: in vitro ADME; conditions: 40 μg/ml, LLC-MDR1 versus LLC-PK1 monolayers
T2 construct: expressed in transfected cells; host or cells: LLC-PK1 (porcine kidney) cells transduced with human MDR1
Procedure: as §1

T2 sequence (P08183 whole entry): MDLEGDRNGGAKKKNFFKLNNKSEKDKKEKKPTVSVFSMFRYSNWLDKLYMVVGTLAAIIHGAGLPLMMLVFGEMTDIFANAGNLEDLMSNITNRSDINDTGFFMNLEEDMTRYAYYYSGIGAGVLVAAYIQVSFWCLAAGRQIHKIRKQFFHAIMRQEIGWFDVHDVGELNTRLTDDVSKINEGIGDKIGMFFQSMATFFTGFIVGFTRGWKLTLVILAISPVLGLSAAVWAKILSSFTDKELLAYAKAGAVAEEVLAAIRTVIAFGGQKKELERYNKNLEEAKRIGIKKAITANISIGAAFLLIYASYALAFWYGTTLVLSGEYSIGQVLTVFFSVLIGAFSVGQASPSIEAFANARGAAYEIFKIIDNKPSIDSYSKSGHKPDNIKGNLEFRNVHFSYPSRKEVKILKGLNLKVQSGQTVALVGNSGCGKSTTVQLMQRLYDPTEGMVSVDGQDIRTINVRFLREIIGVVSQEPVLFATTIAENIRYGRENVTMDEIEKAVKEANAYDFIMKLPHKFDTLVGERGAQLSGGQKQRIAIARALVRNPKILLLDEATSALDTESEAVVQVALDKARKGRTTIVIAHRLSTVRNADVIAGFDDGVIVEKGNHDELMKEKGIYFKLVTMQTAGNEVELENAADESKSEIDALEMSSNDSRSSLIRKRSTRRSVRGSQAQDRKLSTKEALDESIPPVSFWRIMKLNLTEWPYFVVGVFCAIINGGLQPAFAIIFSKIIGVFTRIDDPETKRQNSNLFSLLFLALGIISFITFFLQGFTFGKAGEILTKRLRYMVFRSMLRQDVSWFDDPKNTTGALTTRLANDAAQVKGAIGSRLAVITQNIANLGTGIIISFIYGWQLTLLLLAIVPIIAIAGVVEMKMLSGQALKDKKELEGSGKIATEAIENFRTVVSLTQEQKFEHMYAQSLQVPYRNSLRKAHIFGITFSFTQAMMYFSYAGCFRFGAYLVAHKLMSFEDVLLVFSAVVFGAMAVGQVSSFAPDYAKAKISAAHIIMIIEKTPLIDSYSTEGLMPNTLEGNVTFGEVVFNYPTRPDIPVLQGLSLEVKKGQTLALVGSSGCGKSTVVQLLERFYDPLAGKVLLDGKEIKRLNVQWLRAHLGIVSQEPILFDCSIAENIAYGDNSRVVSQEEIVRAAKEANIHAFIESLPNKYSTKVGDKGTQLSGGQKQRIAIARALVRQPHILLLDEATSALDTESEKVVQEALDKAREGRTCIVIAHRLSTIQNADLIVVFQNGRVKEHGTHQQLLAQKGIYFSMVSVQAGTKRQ

half-life ([2]; culture medium at 37° C.): ~30 min | degradation ([2]; pH 7.4, in 30 min): about 50% | AUC(0-t) ([3]; Bcrp, Mdr1ab knockout mice): 164 ± 4.5 µg·h/mL | AUC(0-t) ([3]; Wild-type mice): 154 ± 4.1 µg·h/mL | dose recovered in the acceptor compartment [4]: at least 5% | transport of temozolomide by murine Bcrp1 [5]: clear vectorial transport | transport of temozolomide by murine Bcrp1 ([5]; listed as Temozolomide): evident | transport of temozolomide by human P-gp ([6]; listed as Temozolomide): not readily detected
Structure (SMILES): Cn1nnc2c(C(N)=O)ncn2c1=O [temozolomide, 8-carbamoyl-3-methyl-[3H]-imidazo[5,1-d]-1,2,3,5-tetrazin-4-one]
progression free survival compared to procarbazine ([1]; patients): significantly longer | survival, radiotherapy with concomitant and adjuvant temozolomide versus radiotherapy alone ([1]; phase III trial): significant survival benefit | objective response rate ([1]; recurrent grade 3 gliomas): 35% | objective response rate ([1]; recurrent grade 4 gliomas): 8% | transport of temozolomide by human P-gp [6]: very limited if any evidence for transport
